Tests used:
[1] = Ivermectin solubility determination in excipients
Description: The solubility assessments were performed by continually adding a known amount of the API into each individual excipient and letting the excipient reach solubility equilibrium via API saturation (visible solid observed). The experiments were conducted at ambient conditions (25° C.) and were left to mix on a stir plate at 500 RPM for at least 72 hours.

[2] = Pharmacokinetics of Ivermectin B1a in SD rat plasma after IV or oral administration; conditions: 2 mg/kg, fasting, male
Description: Thirty-six male Sprague Dawley rats were randomly assigned into four groups, with nine male rats in each group. All animals in all groups are fasted overnight prior to the experimental date.
Blood samples were collected from 6 of 9 animals per group at 0.5, 1, 2, 3, 4, 6, 8, 24, 72, 120, 168 hours post-dose.

[3] = Excipient compatibility study at 40° C./75% RH (HPLC Assay/Related Substances); type: physicochemical; conditions: for Chromatographic purity by HPLC (% area) / Total Impurities % (% adjusted area): 40° C./75% RH; for Total Impurities % (% adjusted area): excluding API impurities
Description: An excipient compatibility study was initiated with selected excipients ranging from oils to surfactants based on equilibrium solubility results (Table 2). […] After solutions were prepared using a hand-held homogenizer (Model IKAT10 Ultra-Turrax), each excipient sample was aliquoted in amber vials, approximately 10% water was added in each excipient aliquot, and bench scale gel stripe OET-004037 was also made and added in a separate set of aliquot samples at approximately 1:1 w/w.
All samples were stored at 40° C./75% relative humidity (RH) condition (Model: Lunaire environmental chamber) and tested by developmental reversed phase HPLC method for Assay/Related Substances at T=0, 2 weeks, and 1 month.

[4] = in Fractionated coconut oil, 10% water, T = 2 weeks
[5] = in Fractionated coconut oil, Control, T = 0
[6] = in Fractionated coconut oil, Control, T = 2 weeks
[7] = in Fractionated coconut oil, Gel Stripe (1:1 w/w), T = 2 weeks
[8] = in Labrasol ALF, 10% water, T = 1 months
[9] = in Labrasol ALF, 10% water, T = 2 weeks
[10] = in Labrasol ALF, Control, T = 0
[11] = in Labrasol ALF, Control, T = 1 months
[12] = in Labrasol ALF, Control, T = 2 weeks
[13] = in Labrasol ALF, Gel Stripe (1:1 w/w), T = 1 months
[14] = in Labrasol ALF, Gel Stripe (1:1 w/w), T = 2 weeks
[15] = in Maisine CC, 10% water, T = 1 months
[16] = in Maisine CC, 10% water, T = 2 weeks
[17] = in Maisine CC, Control, T = 1 months
[18] = in Maisine CC, Control, T = 2 weeks

ivermectin
Solubility ([1]; in Capryol 90, 25° C.): 150.92 mg/g
Solubility ([1]; in Fractionated Coconut oil, 25° C.): 16.55 mg/g
Solubility ([1]; in Glycerin, 25° C.): <0.1 mg/g
Solubility ([1]; in Kolliphor EL, 25° C.): 95.85 mg/g
Solubility ([1]; in Labrafil M 2125 CS, 25° C.): 35.32 mg/g
Solubility ([1]; in Labrasol ALF, 25° C.): 126.36 mg/g
Solubility ([1]; in LauroglycolTM FCC, 25° C.): 71.96 mg/g
Solubility ([1]; in Maisine CC, 25° C.): 60.17 mg/g
Solubility ([1]; in Masester E8120, 25° C.): 164.06 mg/g
Solubility ([1]; in Medium Chain Triglyceride, 25° C.): 16.49 mg/g
Solubility ([1]; in Oleic acid, 25° C.): 48.58 mg/g
Solubility ([1]; in Olive oil, 25° C.): 4.71 mg/g
Solubility ([1]; in PEG 400, 25° C.): 112.92 mg/g
Solubility ([1]; in Propylene glycol, 25° C.): 25.61 mg/g
Solubility ([1]; in Soybean oil, 25° C.): 6.72 mg/g
Solubility ([1]; in Span 20, 25° C.): 97.66 mg/g
Solubility ([1]; in Span 80, 25° C.): 54.04 mg/g
Solubility ([1]; in Triacetin, 25° C.): 58.75 mg/g
Solubility ([1]; in Tween 80, 25° C.): 88.26 mg/g
Solubility ([1]; in Vitamin E TPGS, table title 25° C., text b171: conducted at 40° C.): 82.98 mg/g
AUC(0-t) [2]: 8259.31 ± 1032.95 ng·h/mL
AUC(0-∞) [2]: 8273.53 ng·h/mL
Cmax [2]: 1722.67 ng/mL
MRT(0-t) [2]: 10.58 h
MRT(0-∞) [2]: 10.81 h
T1/2 [2]: 14.82 ± 0.72 h
Tmax [2]: 0.50 h
chemical compatibility with the API ([3]; PEG 400 as co-solvent): poor chemical compatibility
chemical compatibility with the API ([3]; Tween 80): less stability over time
chemical compatibility with the API ([3]; Vitamin E TPGS, compared with Tween 80 and Labrasol ALF): best chemical compatibility
Chromatographic purity by HPLC (% area) [3, 4]: 97.83 % area
Total Impurities % (% adjusted area) [3, 4]: <LOQ
Chromatographic purity by HPLC (% area) [3, 5]: 95.61 % area
Total Impurities % (% adjusted area) [3, 5]: <LOQ
Chromatographic purity by HPLC (% area) [3, 6]: 97.94 % area
Total Impurities % (% adjusted area) [3, 6]: <LOQ
Chromatographic purity by HPLC (% area) [3, 7]: 94.42 % area
Total Impurities % (% adjusted area) [3, 7]: 3.28 % adjusted area
Chromatographic purity by HPLC (% area) [3, 8]: 89.91 % area
Total Impurities % (% adjusted area) [3, 8]: 8.76 % adjusted area
Chromatographic purity by HPLC (% area) [3, 9]: 93.91 % area
Total Impurities % (% adjusted area) [3, 9]: 3.46 % adjusted area
Chromatographic purity by HPLC (% area) [3, 10]: 97.74 % area
Total Impurities % (% adjusted area) [3, 10]: <LOQ
Chromatographic purity by HPLC (% area) [3, 11]: 81.35 % area
Total Impurities % (% adjusted area) [3, 11]: 20.49 % adjusted area
Chromatographic purity by HPLC (% area) [3, 12]: 89.16 % area
Total Impurities % (% adjusted area) [3, 12]: 8.67 % adjusted area
Chromatographic purity by HPLC (% area) [3, 13]: 96.49 % area
Total Impurities % (% adjusted area) [3, 13]: 1.06 % adjusted area
Chromatographic purity by HPLC (% area) [3, 14]: 97.11 % area
Total Impurities % (% adjusted area) [3, 14]: 0.30 % adjusted area
Chromatographic purity by HPLC (% area) [3, 15]: 96.83 % area
Total Impurities % (% adjusted area) [3, 15]: 0.69 % adjusted area
Chromatographic purity by HPLC (% area) [3, 16]: 95.90 % area
Total Impurities % (% adjusted area) [3, 16]: 0.45 % adjusted area
Chromatographic purity by HPLC (% area) ([3]; in Maisine CC, Control, T = 0): 97.13 % area
Total Impurities % (% adjusted area) ([3]; in Maisine CC, Control, T = 0): 0.58 % adjusted area
Chromatographic purity by HPLC (% area) [3, 17]: 96.82 % area
Total Impurities % (% adjusted area) [3, 17]: 0.71 % adjusted area
Chromatographic purity by HPLC (% area) [3, 18]: 96.00 % area
Total Impurities % (% adjusted area) [3, 18]: 0.35 % adjusted area
